Source: PMC4149570 (PLoS ONE, 2014)
Where “and” joins values, the source holds several entries; their conditions need not be identical. Equal entries are not always repeated. Entries after “also recorded” stand apart in the source; their conditions may differ. Where two headings read alike, the source gives them in different places.

How the values were obtained:
[1] = target: T1, Y. pestis MEP synthase (Yersinia pestis, UniProt Q8ZH62); details: for IC50: read-out: IC50 (dose-response, Figure 9)
T1 sequence (Q8ZH62 whole entry, looked up): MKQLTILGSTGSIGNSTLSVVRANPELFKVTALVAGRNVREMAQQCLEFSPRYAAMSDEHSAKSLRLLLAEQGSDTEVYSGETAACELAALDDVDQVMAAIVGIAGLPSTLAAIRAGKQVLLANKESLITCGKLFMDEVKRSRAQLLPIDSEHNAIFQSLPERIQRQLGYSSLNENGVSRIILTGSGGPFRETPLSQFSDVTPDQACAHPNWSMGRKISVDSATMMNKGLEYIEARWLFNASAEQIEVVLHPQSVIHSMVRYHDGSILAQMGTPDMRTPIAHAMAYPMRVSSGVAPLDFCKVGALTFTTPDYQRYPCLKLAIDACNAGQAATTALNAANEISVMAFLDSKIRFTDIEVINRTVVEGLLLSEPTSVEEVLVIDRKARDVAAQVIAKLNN

[2] = test system: Y. pestis subsp. A1122; assay: microbe, parasite or virus in culture; assay type: cell-based, Yersinia pestis; details: for IC50: read-out: IC50 of Y. pestis growth (fractional growth, OD600)
[3] = test system: F. tularensis MEP synthase; details: cited from earlier work
[4] = test system: MEP synthase; details: cited from earlier work
[5] = target: Synechocytis sp PCC6803 MEP synthase; details: cited from earlier work
[6] = test system: E.coli MEP synthase; details: cited from earlier work
[7] = target: T1, Y. pestis MEP synthase; assay: biochemical; details: for inhibition at 100 µM: read-out: inhibition of enzymatic activity (rational library screen)
[8] = test system: F. tularensis; details: read-out: activity of fosmidomycin with F. tularensis (half maximal growth inhibition); cited from earlier work
[9] = Yersinia pestis, SUBSP.A1122, 24 h
[10] = IC50 (enzyme preincubated with inhibitor, Figure 10)

SMILES: CC(C)=CCOP(=O)(O)OP(=O)(O)O [DMAPP, dimethylallyl pyrophosphate]
- inhibition of Y. pestis MEP synthase (feedback inhibition test) [1]: No enzyme inhibition was observed

SMILES: CC(=O)N(O)CCCP(=O)(O)O [FR900098, reference compound]
- IC50 [2, 9]: 29 µM and 6.4 µg/mL
- IC50 [2]: 29300 nM
- IC50 ([3]; read-out: IC50 FR900098): 230 nM
- mode of inhibition with respect to DXP [1]: competitive
- mode of inhibition with respect to NADPH [1]: uncompetitive
- mode of inhibition relative to DXP [4]: competitive
- mode of inhibition with respect to the binding of NADPH [4]: uncompetitive
- Ki ([5]; read-out: Ki FR900098): 2 nM
- IC50 ([6]; read-out: IC50 FR900098): 35 nM
- Ki [7]: 170 ± 7.1 nM
- IC50 ([7]; IC50 FR900098): 231 nM

SMILES: CC(C)=CCC/C(C)=C/COP(=O)(O)OP(=O)(O)O [GPP, geranyl pyrophosphate]
- inhibition of Y. pestis MEP synthase (feedback inhibition test) [1]: No enzyme inhibition was observed

SMILES: C=C(C)CCO[P@@](=O)(O)OP(=O)(O)O [IPP, isopentenyl pyrophosphate]
- inhibition of Y. pestis MEP synthase (feedback inhibition test) [1]: No enzyme inhibition was observed

SMILES: CC1(C)S[C@@H]2[C@H](NC(=O)[C@H](N)c3ccccc3)C(=O)N2[C@H]1C(=O)O [ampicillin, reference compound]
- IC50 [2, 9]: 10.8 µM and 3.8 µg/mL

SMILES: CC(=O)N(CCCP(=O)(O)O)OCc1ccc(-c2ccccc2)cc1 [compound 13]
- IC50 [1]: 5110 nM
- inhibition at 100 µM [7]: > 75%

SMILES: C[C@@]1(CO)OP(=O)(O)OP(=O)(O)OC[C@H]1O [compound 15]
- growth inhibitory activity towards Y. pestis liquid culture [2]: comparable to FR900098; also recorded: relatively poor inhibitory activity
- improvement of IC50 on preincubation with inhibitor [1]: approximately 3 fold
- IC50 ([7]; IC50 (dose-response, Figure 9)): 4110 nM
- IC50 [7, 10]: 1190 nM
- inhibition at 100 µM [7]: > 75%

SMILES: C/C(=C\COP(=O)(O)OP(=O)(O)O)CO [compound 16]
- growth inhibitory activity towards Y. pestis liquid culture [2]: comparable to FR900098; also recorded: relatively poor inhibitory activity
- improvement of IC50 on preincubation with inhibitor [1]: ~12 fold
- mode of inhibition with respect to DXP [1]: competitive
- mode of inhibition with respect to NADPH [1]: competitive
- IC50 ([7]; IC50 (dose-response, Figure 9)): 4150 nM
- IC50 [7, 10]: 335 nM
- inhibition at 100 µM [7]: > 75%

SMILES: Cc1ccc(C(=O)N(O)CCCP(=O)(O)O)cc1 [compound 42]
- IC50 [1]: 10800 nM
- inhibition at 100 µM [7]: > 75%

SMILES: O=C(c1ccc2ccccc2c1)N(O)CCCP(=O)(O)O [compound 48]
- IC50 [1]: 9530 nM
- inhibition at 100 µM [7]: > 75%

SMILES: CCOP(=O)(CCCN(OCc1ccc(C(C)C)cc1)C(C)=O)OCC [compound 51]
- growth inhibitory activity towards Y. pestis liquid culture [2]: comparable to FR900098; also recorded: relatively poor inhibitory activity

SMILES: CC(=O)N(CCCP(=O)(OCOC(=O)C(C)(C)C)OCOC(=O)C(C)(C)C)OCc1ccc(C(C)C)cc1 [compound 52]
- growth inhibitory activity towards Y. pestis liquid culture [2]: comparable to FR900098; also recorded: relatively poor inhibitory activity

SMILES: O=CN(O)CCCP(=O)(O)O [fosmidomycin]
- IC50 [8]: 12100 nM
- IC50 ([3]; read-out: IC50 fos): 247 nM
- Ki ([3]; read-out: Ki fos): 98.9 ± 4.5 nM
- mode of inhibition with respect to the binding of NADPH [4]: uncompetitive
- Ki ([5]; read-out: Ki fos): 4 nM
- IC50 ([6]; read-out: IC50 fos): 35 nM
- Ki ([6]; read-out: Ki fos): 21 to 215 nM
- Ki [7]: 968 nM
- IC50 ([7]; IC50 fos): 710 nM
